The results in this text go back to patent publication US10301295B2, “Herbicidal compounds” (Syngenta Participations AG, priority 2014, dated 2019).

Read-outs that look alike come from different tables or passages of the source.

Common to all, as to assay type: in vivo
Assay [1] relates to Alopecurus myosuroides (ALOMY). As to the kind of experiment: Glasshouse assay for herbicidal activity, pre-/post-emergence (percentage phytotoxicity). As to conditions: Alopecurus myosuroides, Rate 250 g/ha, 100%=total damage, 0%=no damage. An outline of the steps:
(§1)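 Pre- and post-emergence treatments were applied to potted plants at 1 and ~12 days after sowing respectively. Percentage phytotoxicity was judged visually 20 or 15 days later.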

Assay [2] has as its system Avena fatua (AVEFA). Described as above. As to conditions: Avena fatua, Rate 250 g/ha, 100%=total damage, 0%=no damage. Put shortly: as §1
Assay [3] has as its system Echinochloa crus-galli (ECHCG). The description is as above. Particulars: Echinochloa crus-galli, Rate 250 g/ha, 100%=total damage, 0%=no damage. Put shortly: as §1
Assay [4] relates to Lolium perenne (LOLPE). Described as above. As to conditions: Lolium perenne, Rate 250 g/ha, 100%=total damage, 0%=no damage. Put shortly:
as §1

The test system of assay [5] is wheat. Kind of assay: Post-emergence herbicidal activity against cereal crops (wheat) +/- safener, crop selectivity. As to conditions: 100%=total damage to plant, 0%=no damage; for Post-emergence herbicidal activity against wheat (percentage phytotoxicity), +CQC: 250 g/ha, plus safener cloquintocet-mexyl (CQC) applied at 50 g/ha; for percent phytotoxicity (crop damage) to wheat at 250 g/ha: Triticum aestivum, 360 h, without safener, read-out: Post-emergence herbicidal activity against wheat (percentage phytotoxicity), Wheat - CQC. As for the experimental part: Seeds of a variety of monocotyledonous and dicotyledonous test plants are sown in standard soil in pots. The plants are cultivated for one day (for pre-emergence) or for about 12 days (for post-emergence) under controlled conditions in a glasshouse (warm climate species at 24/18° C., cool climate species at 20/16° C., both at day/night; 16 hours light; 65% humidity). The test plants are then grown on, in a glasshouse (greenhouse) under controlled conditions (warm climate species at 24/18° C., cool climate species at 20/16° C., both at day/night; 16 hours light; 65% humidity) and are watered twice daily. 15 days after application of the test herbicide (15DAA) (for post-emergence), and 20 days after application of the test herbicide (20DAA) (for pre-emergence), the test plants are evaluated visually, and an assessed percentage phytotoxicity score is given for each herbicidal application on each plant species (with 100%=total damage to plant; 0%=no damage to plant).

[6] abbreviates: 360 h, post-emergence, visual assessment 15 DAA, read-out: Post-emergence herbicidal activity (percentage phytotoxicity), ALOMY POST.
The mark [7] stands for this setting: 480 h, pre-emergence, visual assessment 20 DAA, read-out: Pre-emergence herbicidal activity (percentage phytotoxicity), ALOMY PRE.
Where [8] appears, read: post-emergence, 360 h, post-emergence, visual assessment 15 DAA, read-out: Post-emergence herbicidal activity (percentage phytotoxicity), AVEFA POST.
[9] abbreviates: pre-emergence, 480 h, pre-emergence, visual assessment 20 DAA, read-out: Pre-emergence herbicidal activity (percentage phytotoxicity), AVEFA PRE.
The mark [10] stands for this setting: post-emergence, 360 h, post-emergence, visual assessment 15 DAA, read-out: Post-emergence herbicidal activity (percentage phytotoxicity), ECHCG POST.
The mark [11] stands for this setting: pre-emergence, 480 h, pre-emergence, visual assessment 20 DAA, read-out: Pre-emergence herbicidal activity (percentage phytotoxicity), ECHCG PRE.
The mark [12] stands for this setting: post-emergence, 360 h, post-emergence, visual assessment 15 DAA, read-out: Post-emergence herbicidal activity (percentage phytotoxicity), LOLPE POST.
Setting [13] is: pre-emergence, 480 h, pre-emergence, visual assessment 20 DAA, read-out: Pre-emergence herbicidal activity (percentage phytotoxicity), LOLPE PRE.

Regarding `Cc1cc(C)c(C2C(=O)CC(CCNC(=O)NC(=O)c3c(F)cccc3F)C2=O)c(C)c1` (stereo not drawn) [Compound A48], the pest or weed control at 250 g/ha in assay [1] (setting [6]) stood at 90%; in assay [1] (setting [7]), 100%; in assay [2] (setting [8]), 100%; in assay [2] (setting [9]), 90%; in assay [3] (setting [10]) it was 100%; in assay [3] (setting [11]), 90%. For the same compound, the pest or weed control at 250 g/ha in assay [4] (setting [12]) and in assay [4] (setting [13]) was 100% in each case. In addition, the “Post-emergence herbicidal activity against wheat (percentage phytotoxicity), +CQC” value in assay [5] was 50%. In addition, the percent phytotoxicity (crop damage) to wheat at 250 g/ha in assay [5] stood at 60%.

Take `CC(=NOCc1ccccc1)C(=O)NCCC1CC(=O)C(c2c(C)cc(C)cc2C)C1=O` (stereo not drawn) [Compound A44]: the pest or weed control at 250 g/ha in assay [1] (setting [6]) is 0%; in assay [1] (setting [7]), 0%; in assay [2] (setting [8]), 0%; in assay [2] (setting [9]), 0%; in assay [3] (setting [10]), 70%; in assay [3] (setting [11]) it was 0%. Moreover, the pest or weed control at 250 g/ha was determined as 0% in assay [4] (setting [12]) and 10% in assay [4] (setting [13]). Moreover, the “Post-emergence herbicidal activity against wheat (percentage phytotoxicity), +CQC” value in assay [5] worked out at 10%. In assay [5], the percent phytotoxicity (crop damage) to wheat at 250 g/ha amounted to 30%.

For `Cc1cc(C)c(C2C(=O)CC(CCNS(=O)(=O)c3ccc(F)cc3)C2=O)c(C)c1` (stereo not drawn) [Compound A73], the pest or weed control at 250 g/ha stood at 40% in assay [1] (setting [6]); 70% in assay [1] (setting [7]); 60% in assay [2] (setting [8]); 0% in assay [2] (setting [9]); 30% in assay [3] (setting [10]); 30% in assay [3] (setting [11]). For the same compound, the values for the pest or weed control at 250 g/ha in assay [4] (setting [12]) and in assay [4] (setting [13]) were 60% and 70%, respectively. Further, the “Post-emergence herbicidal activity against wheat (percentage phytotoxicity), +CQC” value in assay [5] was found to be 10%. Moreover, the percent phytotoxicity (crop damage) to wheat at 250 g/ha in assay [5] was determined as 0%.

Take `Cc1cc(C)c(C2C(=O)CC(CCNC(=O)NC(=O)c3ccc(Cl)cc3)C2=O)c(C)c1` (stereo not drawn) [Compound A51]: the pest or weed control at 250 g/ha in assay [1] (setting [6]) is 90%; in assay [1] (setting [7]), 70%; in assay [2] (setting [8]) it was 80%; in assay [2] (setting [9]) it was 30%; in assay [3] (setting [10]), 90%; in assay [3] (setting [11]), 90%. The pest or weed control at 250 g/ha amounted to 90% in assay [4] (setting [12]) and 60% in assay [4] (setting [13]). In addition, in assay [5], the “Post-emergence herbicidal activity against wheat (percentage phytotoxicity), +CQC” value was found to be 80%. Further, the percent phytotoxicity (crop damage) to wheat at 250 g/ha in assay [5] is 80%.

On to `Cc1cc(C)c(C2C(=O)CC(CCNC(=O)NO)C2=O)c(C)c1` (stereo not drawn) [Compound A26], for which the pest or weed control at 250 g/ha in assay [1] (setting [6]) stood at 10%; in assay [1] (setting [7]), 0%; in assay [2] (setting [8]) it was 0%; in assay [2] (setting [9]) it was 0%; in assay [3] (setting [10]), 10%; in assay [3] (setting [11]), 0%. For the same compound, the pest or weed control at 250 g/ha in assay [4] (setting [12]) turned out to be 40%; in assay [4] (setting [13]) it was 0%. For the same compound, the “Post-emergence herbicidal activity against wheat (percentage phytotoxicity), +CQC” value in assay [5] is 10%. Moreover, the percent phytotoxicity (crop damage) to wheat at 250 g/ha in assay [5] stood at 0%.

For the compound `Cc1cc(C)c(C2C(=O)CC(CCNC(=S)NC(=O)c3ccccc3)C2=O)c(C)c1` (stereo not drawn) [Compound A91], the pest or weed control at 250 g/ha in assay [1] (setting [6]) stood at 80%; in assay [1] (setting [7]), 60%; in assay [2] (setting [8]), 10%; in assay [2] (setting [9]), 60%; in assay [3] (setting [10]), 0%; in assay [3] (setting [11]), 70%. The pest or weed control at 250 g/ha in assay [4] (setting [12]) and in assay [4] (setting [13]) was 70% each time. The “Post-emergence herbicidal activity against wheat (percentage phytotoxicity), +CQC” value in assay [5] was 70%. The percent phytotoxicity (crop damage) to wheat at 250 g/ha in assay [5] was 70%.
